Patent publication US6140363A, “Use of rosmarinic acid and derivatives thereof as an immunosuppressant or an inhibitor of SH2-mediated processes” (Mogam Biotechnology Research Institute, priority 1998, dated 2000)
Entries after “also recorded” stand apart in the source; their conditions may differ. Read-outs that look alike come from different tables or passages of the source.

What was measured:
Jurkat cells = assay: intracellular calcium signaling activated by anti-CD3 and anti-CD4 antibodies (Fura-2/AM); type: cell-based; settings: 0.5-50 μg for 10 minutes, then anti-CD3 and anti-CD4 antibodies
Description: Fura-2/AM (Calbiochem, San Diego, Calif., USA), a fluorescent indicator of intracellular calcium, was loaded into Jurkat cells, and various amounts (0.5 μg, 1 μg, 10 μg, 50 μg) of rosmarinic acid, isolated from Prunella vulgaris, was treated to the cells for 10 minutes. The cells were treated with anti-CD3 and anti-CD4 antibodies, and then the fluctuation of intracellular calcium level was recorded by the amount of fluorescence emitted from the cells.

[1] = system: DNFB-induced contact hypersensitivity; assay: contact hypersensitivity response to DNFB, ear thickness; type: in vivo, Balb/c female mice; settings: intramuscular, 6 consecutive days during induction phase; rosmarinic acid 5-50 mg/kg/day
Description: In vivo test procedure evaluating the immunosuppressive activity was performed using contact hypersensitivity response to DNEB (2,4-dinitroflourobenzene). […] This is an antigen-specific T cell-mediated inflammatory response that represents delayed-type hypersensitivity (DTH) reactions seen in both humans and other mammals. The contact sensitivity animal model is used routinely in many laboratories for pharmacological screening of anti-inflammatory agents and agents for the treatment of autoimmune diseases. […] The procedure is summarized as following. Balb/c female mice were used at 8 weeks of age. Twenty μl of 0.5% DNFB (Sigma Chemical Co.) in 4:1 diluted acetone: olive oil (Sigma Chemical Co.) was painted on each shaved abdominal skin for 2 successive days. Four days later, the mice were challenged by applying 10 μl of 0.2% DNFB in the same vehicle to each side of each ear. Cydosporin A and rosmarinic acid were treated through intramuscular administration at the indicated doses from 0 to 5 day. Ear thickness was measured using engineer's micrometer (Mitutoyo Co. Mfg. Ltd., Tokyo) 24 h after postchallenge.

[2] = system: IL-1β, IL-2, IL-4, IL-6 and IFN-γ mRNA; assay: cytokine mRNA in renal allografts, semi-quantitative RT-PCR; type: in vivo, mice; settings: renal allograft day 7, i.m. daily 7 days, rosmarinic acid 25, Cyclosporin A 50 mg/kg/day
Excerpt: Balb/c recipients transplanted from C57BL/6 donor were killed at 7 day after the subcapsular kidney transplantation. Renal allografts were harvested and total cellular RNA was extracted and analyzed for the expression of various cytokine mRNA. Using a serniquantitative PCR method, we temporally analyzed mRNA levels of IL-1β, IL-2, IL-4, IL-6 and IFN-γ.
The cytokine levels of PCR products were normalized by β-actin mRNA used as a control.
Kidney fragments (C57BL/6) were transplanted to allogeneic mice (Balb/C) using subcapsular kidney transplantation technique.
Total RNA from the grafts was isolated using TRIZOL® LS Reagent (Life Technologies), incubated at room temperature for 15 min after addition of chloroform, extracted with phenol/chloroform, and precipitated with isopropanol. Isolated total RNA was then quantitated spectrophotometrically. Total RNA from the graft (1 μg) was performed using Titan™ One Tube RT-PCR System (BM) according to the manufacture's protocol. The PCR was done in a 50 μl volume containing 1× RT-PCR buffer with Mg^2+, 0.2 mM each dNTP(dATP, dGTP, dCTP and dTTP), 10U RNase inhibitor, enzyme mix (AMV and Expand™ High Fidelity PCR-System),5 mM DTT solution and 0.4 μM appropriate primer pair. Primer sequences for IL-2, IFN-γ, IL-4, IL-6, IL-1β and β-actin were obtained from previous reports. […] The number of amplification cycles was 25. An aliquot (15 μl) of the PCR product was electrophoresed on 2% agarose gel, and amplified DNA fragments were stained with ethidium bromide.

SPF SD type rat = assay: parenteral administration test for acute toxicity; type: in vivo
Excerpt: Acute toxicity was examined using 6week-old SPF SD type rat. As liposomal form, I g/kg of rosmarinic acid, rosmarinyl isopropyl ester, rosmarinyl ethyl ester, (S)-rosmarinyl bis(tert-butyldimethylsilyl)ether or (S)-rosmarinic acid was intramuscularly injected into two […] per experimental group.

[3] = system: C57BL/6 tail-skin graft on Balb/c recipient mice; assay: skin allograft rejection, survival time of skin graft; type: in vivo
Description: In vivo procedure evaluated the survival time of a skin graft.
Experimental allograft rejection was performed by grafting allogeneic C57BL/6 (H-2b) mouse tail-skin onto Balb/c (H-2d) recipient mice. Rosmarinic acid and derivative thereof were administered intramuscularly from the day of the transplantation until rejection. […] Full-thickness donor (C57BL/6) tail skin grafts (square pieces 2.0×2.0 cm) were transplanted onto the lateral thorax of recipient mice (Balb/C) and covered with sterile bactericidal gauze. The entire chest was then wrapped with an elastic bandage. […] Skin graft were monitored daily after the removal of the bandage on day 6. Rejection was defined as more than 90% necrosis of the graft epithelium.

[4] = system: IL-2 gene expression in Jurkat T cells; assay: TCR stimulation-induced IL-2 gene expression, IL-2-luciferase reporter system; type: cell-based; settings: 8 μM, 30 min prior to T cell activation
Description: The effects of rosmarinic acid and derivatives thereof on the level of IL-2 gene expression were tested by using the IL-2-luciferase reporter system, in which cultured cells were transfected with a reporter plasmid. The plasmid was constructed by fusion of the IL-2 promoter sequence with the structural gene of luciferase. […] Cells were activated by incubation for 14 h on a 35 mm dish coated with 5 μg/ml anti-CD3 antibody (UCHT1, Pharmingen) and/or anti-CD4 antibody (RPA-T4, Pharmingen) and then harvested. For PMA plus Iononycin stimulation, 5 ng/ml of PMA and 500 ng/ml of lonomycin were added to the culture media and incubated for 14 h. Luciferase activity was determined three times in duplicate for each experiment with a Berthold luminometer LB953.

Lck SH2 domain = molecular target: T1, Lck SH2 domain (Homo sapiens, UniProt P06239); assay: in vitro binding between Lck SH2 domain (GST fusion) and biotinylated phosphotyrosyl peptide
T1 construct: Lck SH2 domain expressed and purified as a fusion protein with Glutathione-S-transferase; made in house
Excerpt: A novel screening system was developed in the present invention to screen a substance inhibiting the interaction between Lck SH2 domain and its ligand. In the binding assay, Lck SH2 domain expressed and purified as a fusion protein with Glutathione-S-transferase (GSI) were covalently attached to 96-well microtitre plates through amide bond formation. The immobilized proteins were subsequently allowed to bind biotinylated phosphotyrosine (Y)-containing synthetic peptide (biotin-[…]pYEEIPI) known as a high affinity ligand for the Lck SH2 domain.
For attachment to 96-well microtitre plate, 1 μM of purified fusion protein (GST-Lck SH2) was reacted for 2 hours at room temperature. Added to the binding assay were 1 μM of the biotinylated synthetic peptide (the ligand of Lck SH2 domain) and a candidate for the inhibitor. The candidates were thousands of natural products including various kinds of Streptoryces, fungi and herbs extract. Binding reaction was performed for 2 hours at room temperature, allowing the competitive inhibition of the binding between GST-Lck SH2 and the peptide ligand. Then peroxidase-conjugated streptavidin (Pierce, USA) was added into the mixture so that added conjugates can be bound to biotinylated peptide. After unbound conjugates were washed, coloring reaction was performed to measure the activity of immobilized peroxidase, or the binding activity of the peptide to SH2 domain in the presence of the candidate added. More particularly, the coloring reaction was initiated by adding 3,3,5,5-tetramethyl benzidine (substrate) to the reaction mixture. After 30 minutes, the reaction was stopped by adding 0.8M sulfuric acid, and immediately brought to the spectrophotometry of measuring absorbance at 450 nm.
Various concentrations (0.03~300 μg/ml) of rosmarinic acid solution, which was isolated from Prunella vulgaris or derivatives thereof, were added to the protein-coated micro-well mixed with phosphopeptide solution. The binding of biotiyated pY peptides was detected by the streptavidin-conjugated horseradish peroxidase (HRP).

[5] = 1 g/kg intramuscular, liposomal form
[6] = GST-Lck SH2, 1 μM biotinylated pY peptide, 0.03~300 μg/ml tested, read-out: half-maximal inhibitory concentration (IC50) of binding to Lck SH2 domain (converted)

T1 sequence (P06239 127-224 limits assumed): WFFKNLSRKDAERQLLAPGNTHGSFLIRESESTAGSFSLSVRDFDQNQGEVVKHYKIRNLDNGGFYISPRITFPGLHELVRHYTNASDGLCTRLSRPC

Compound | inhibitory effect on intracellular calcium level (Jurkat cells) | suppression of DNFB-induced contact hypersensitivity [1] | IFN-γ mRNA transcription in allograft transplants [2] | IL-1β mRNA transcription in allograft transplants ([2]; 50 mg/kg/day) | IL-2 mRNA transcription in allograft transplants ([2]; 50 mg/kg/day) | IL-4 mRNA transcription in allograft transplants ([2]; 50 mg/kg/day) | IL-6 mRNA transcription in allograft transplants ([2]; 50 mg/kg/day) | acute toxic effect (clinic symptom, weights, blood test, autopsy) (SPF SD type rat; [5]) | survival after acute dose (SPF SD type rat; [5]) | MST ± SD ([3]; 15 mg/kg/day i.m.) [days] | MST ± SD ([3]; 15 mg/kg/day i.m., listed as rosmarinic acid) [days] | MST ± SD ([3]; 25 mg/kg/day i.m.) [days] | inhibition of TCR-induced IL-2 gene expression (luciferase activity) [4] | IC50 (Lck SH2 domain) [µM] | survival after acute dose (SPF SD type rat; in vivo) | IC50 (Lck SH2 domain; [6]) [µM] | IC50 (Lck SH2 domain; read-out: half-maximal inhibitory concentration (IC50) of binding to Lck SH2 domain, GST-Lck SH2, 1 μM biotinylated pY peptide, 0.03~300 μg/ml tested) [µM]
O=C(/C=C/c1ccc(O)c(O)c1)OC(Cc1ccc(O)c(O)c1)C(=O)O (centres unmarked) [Rosmarinic acid, rosmarinic acid] | dose-dependent inhibitory effect | dose-dependently suppressed | markedly inhibited | markedly inhibited; also recorded: more potent activity than that of Cyclosporin A | markedly inhibited; also recorded: more potent activity than that of Cyclosporin A | markedly inhibited; also recorded: significantly reduced | markedly inhibited; also recorded: significantly reduced | did not elicit any toxic effect | all tested animals were survived | 14.0 ± 1.0 | 14.0 | 18.8 ± 3.6 | more efficiently than other immunosuppressants did | 8.33 |  |  | 
CC(C)OC(=O)C(Cc1ccc(O)c(O)c1)OC(=O)/C=C/c1ccc(O)c(O)c1 (centres unmarked) [Rosmarinyl isopropyl ester] |  | dose-dependent suppression |  |  |  |  |  | did not elicit any toxic effect |  | 14.2 ± 1.8 |  |  | inhibited as much as rosmarinic acid |  | all tested animals were survived | 2.49 | 
CC(C)(C)[Si](C)(C)Oc1ccc(/C=C/C(=O)O[C@@H](Cc2ccc(O)c(O)c2)C(=O)O)cc1O[Si](C)(C)C(C)(C)C [(S)-Rosmarinyl bis(tert-butyldimethylsilyl)ether] |  | dose-dependent suppression |  |  |  |  |  | did not elicit any toxic effect | all tested animals were survived | 13.2 ± 1.6 |  |  | inhibited as much as rosmarinic acid |  |  |  | 22.1
CCOC(=O)C(Cc1ccc(O)c(O)c1)OC(=O)/C=C/c1ccc(O)c(O)c1 (centres unmarked) [Rosmarinyl ethyl ester] |  | dose-dependent suppression |  |  |  |  |  | did not elicit any toxic effect |  | 14.4 ± 1.8 |  |  | inhibited as much as rosmarinic acid |  | all tested animals were survived | 10.3 | 
O=C(/C=C/c1ccc(O)c(O)c1)O[C@@H](Cc1ccc(O)c(O)c1)C(=O)O [(S)-rosmarinic acid] |  | dose-dependent suppression |  |  |  |  |  | did not elicit any toxic effect | all tested animals were survived | 14.8 ± 1.5 |  |  | inhibited as much as rosmarinic acid | 27.8 |  |  | 
